Test results taken from PubChem BioAssay AID2060896 (Molecular Pharmacology Branch, DTP, NCI, 2025).
Values joined by “and” are separate entries in the source; they are usually repeats but may differ in a detail not shown here. Equal values may be shown once.

System: 941728-121-R-J1-PDC complex spheroid viability
Experiment: Anticancer human tumor 941728-121-R-J1-PDC patient-derived lung adenocarcinoma cell line growth inhibition [RAS]
Settings: for viability, T/C: stronger effect = lower value
Source text: RAS pathway inhibitors in Combinations in Complex Spheroids
A high-throughput screen of multi-cell type tumor spheroids was designed to identify active combinations of RAS pathway inhibitors and targeted small molecules. Complex spheroids include a stromal component modeled by human endothelial cells (HUVEC) and fibroblasts modeled by human mesenchymal stem cells (MSCs). The concentration ranges selected for each drug and investigational agent were based upon clinically achievable concentrations if the clinical Cmax of the agent was known.
Compounds. The drugs and investigational agents: abemaciclib (NSC768073), cobimetinib (NSC768068), divarasib (GDC6063, NSC841802), docetaxel (NSC628503), GDC-1971 (RLY-1971, NSC841576), gemcitabine (NSC613327), inavolisib (NSC800729), ipatasertib (NSC767898), KB-0742 (NSC834161), MRTX-1133 (NSC836407), osimertinib (NSC779217), RMC-4630 (NSC839698), RMC-6236 (NSC851965), RMC-6291 (NSC852671), Ro-3306 (NSC812927), sapanisertib (NSC764658), SN-38 (NSC673596), staurosporine (NSC755774), SY5609 (NSC837396), and tovorafenib (DAY101, NSC766906), were obtained from the National Cancer Institute (NCI) Developmental Therapeutics Program Chemical Repository. The FDA-approved anticancer drug set is available from the NCI Developmental Therapeutics Program. […] The stock solutions were prepared in dimethyl sulfoxide (DMSO, Sigma-Aldrich, St. Louis, MO, cat. D2650) at 800-fold the tested concentration and stored at -70 degrees C prior to their use. All drugs and investigational agents were tested over a range starting from a high concentration at or near the clinical Cmax and decreasing in half-log increments. If the clinical Cmax for an agent had not been determined, the highest concentration tested was 10 microM.
Cell Culture. All cells were maintained in an incubator at 37 degrees C and 5% CO2 with 95% humidity. The PDC lines were cultured according to standard operating procedures established by the NCI PDMR. All PDCs were thawed and cultured in Matrigel-coated flasks prepared with a working solution of 1X Ham's F-12 nutrient mix, without supplementation (Invitrogen, Waltham, MA, cat. 11765054), 100 U/mL penicillin-streptomycin (Invitrogen, cat. 15140122), and 2.5% Matrigel (Corning Inc., Corning, NY, cat. 354248) for the first three passages. The 362531-283-R-J2-PDC and 782815-120-R-J1-PDC lines were cultured in 6C/Colon 1B media, which includes advanced DMEM/F-12 (Thermo Fisher Scientific, cat. 12634028), 10 mM HEPES (Thermo Fisher Scientific, cat. 15630080), 1X GlutaMAX supplement (Thermo Fisher Scientific, cat. 35050061), 0.1 mg/mL primocin (InvivoGen, San Diego, CA, cat. ant-pm-2), 10% defined fetal bovine serum, heat inactivated (HyClone Laboratories Inc., Logan, UT, cat. SH30070.03HI), 50% L-WRN conditioned media (ATCC, cat. CRL-3276), 1.25 mM N-Acetyl-L-cysteine (Sigma-Aldrich, cat. A9165), 10 mM nicotinamide (Sigma-Aldrich, cat. N0636), 1X B-27 supplement (Thermo Fisher Scientific, cat. 17504044), 1X N-2 supplement (Thermo Fisher Scientific, cat. 17502048), 50 ng/mL human EGF (Thermo Fisher Scientific, cat. PHG0311), and 10 microM Y-27632 dihydrochloride (Tocris Bioscience, cat. 1254). The K12877-001-R-J1-PDC line was cultured in 6I media, which includes all 6C/Colon 1B media plus 10 ng/mL human FGF-10 (PeproTech, cat. 100-26), 1 ng/mL human FGF-2 (PeproTech, cat. 100-18B), 1 µM prostaglandin E2 (Tocris Bioscience, cat. 2296), […] hydrocortisone (Sigma-Aldrich, cat. H4001), and […] bovine insulin (Sigma-Aldrich, cat. I6634). The K86415-001-R-J1-PDC line was cultured in 6D media, which includes all 6C/Colon 1B media components minus the L-WRN conditioned media. The 485176-168-R4-J1-PDC was cultured in PANC media, which includes all 6C/Colon 1B media plus 100 ng/mL human FGF-10 (PeproTech, cat. 100-26), 500 nM SB-431542 (Selleckchem, cat. S1067), and 10 nM gastrin (Tocris Bioscience, cat. 3006). […]

[1] = curve of first compound, second compound 0.0316 µM
[2] = curve of first compound, second compound 0.1 µM
[3] = curve of first compound, second compound 0.316 µM
[4] = curve of first compound, second compound 1 µM
[5] = curve of first compound, second compound 3.16 µM
[6] = curve of first compound, second compound 10 µM
[7] = second compound 0.0316 µM, first compound 0.00316 µM
[8] = second compound 0.0316 µM, first compound 0.01 µM
[9] = second compound 0.0316 µM, first compound 0.0316 µM
[10] = second compound 0.0316 µM, first compound 0.1 µM
[11] = second compound 0.0316 µM, first compound 0.316 µM
[12] = second compound 0.0316 µM, first compound 1 µM
[13] = second compound 0.1 µM, first compound 0.00316 µM
[14] = second compound 0.1 µM, first compound 0.01 µM
[15] = second compound 0.1 µM, first compound 0.0316 µM
[16] = second compound 0.1 µM, first compound 0.1 µM
[17] = second compound 0.1 µM, first compound 0.316 µM
[18] = second compound 0.1 µM, first compound 1 µM
[19] = second compound 0.316 µM, first compound 0.00316 µM
[20] = second compound 0.316 µM, first compound 0.01 µM
[21] = second compound 0.316 µM, first compound 0.0316 µM
[22] = second compound 0.316 µM, first compound 0.1 µM
[23] = second compound 0.316 µM, first compound 0.316 µM
[24] = second compound 0.316 µM, first compound 1 µM
[25] = second compound 1 µM, first compound 0.00316 µM
[26] = second compound 1 µM, first compound 0.01 µM
[27] = second compound 1 µM, first compound 0.0316 µM
[28] = second compound 1 µM, first compound 0.1 µM
[29] = second compound 1 µM, first compound 0.316 µM
[30] = second compound 1 µM, first compound 1 µM
[31] = second compound 3.16 µM, first compound 0.00316 µM
[32] = second compound 3.16 µM, first compound 0.01 µM
[33] = second compound 3.16 µM, first compound 0.0316 µM
[34] = second compound 3.16 µM, first compound 0.1 µM
[35] = second compound 3.16 µM, first compound 0.316 µM
[36] = second compound 3.16 µM, first compound 1 µM
[37] = second compound 10 µM, first compound 0.00316 µM
[38] = second compound 10 µM, first compound 0.01 µM
[39] = second compound 10 µM, first compound 0.0316 µM
[40] = second compound 10 µM, first compound 0.1 µM
[41] = second compound 10 µM, first compound 0.316 µM
[42] = second compound 10 µM, first compound 1 µM
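Note: spheroids exposed to compounds for 7 days before readout.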
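Throughout, for viability, T/C: 100% = DMSO vehicle control viability.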

CC(=O)OC12COC1CC(O)C1(C)C(=O)C(O)C3=C(C)C(OC(=O)C(O)C(NC(=O)OC(C)(C)C)c4ccccc4)CC(O)(C(OC(=O)c4ccccc4)C21)C3(C)C (centres undefined)
viability, T/C (compound 0.0316 µM): 51.2% [middle of 4 runs] | viability, T/C (compound 0.1 µM): 54.9% [middle of 4 runs] | viability, T/C (compound 0.316 µM): 48.2% [middle of 4 runs] | viability, T/C (compound 1 µM): 49% [middle of 4 runs] | viability, T/C (compound 3.16 µM): 47.4% [middle of 4 runs] | viability, T/C (compound 10 µM): 56.4% [middle of 4 runs]

CCC(CC)c1cc(NC2CCC(N)C2)n2nccc2n1 (centres undefined)
viability, T/C (compound 0.1 µM): 105% [middle of 4 runs] | viability, T/C (compound 0.316 µM): 95.6% [middle of 4 runs] | viability, T/C (compound 3.16 µM): 30.5% [middle of 4 runs] | viability, T/C (compound 10 µM): 44% [middle of 4 runs] | IC50 (curve of compound): 2030 nM and 2530 nM and 2050 nM

Nc1ccn(C2OC(CO)C(O)C2(F)F)c(=O)n1 (centres undefined)
viability, T/C (compound 0.0316 µM): 56.4% [middle of 4 runs] | viability, T/C (compound 0.1 µM): 57.3% [middle of 4 runs] | viability, T/C (compound 0.316 µM): 52.7% [middle of 4 runs] | viability, T/C (compound 1 µM): 43% [middle of 4 runs]

C=CC(=O)Nc1cc(Nc2nccc(-c3cn(C)c4ccccc34)n2)c(OC)cc1N(C)CCN(C)C + C#Cc1c(F)ccc2cc(O)cc(-c3ncc4c(N5CC6CCC(C5)N6)nc(OCC56CCCN5CC(F)C6)nc4c3F)c12
IC50 [1]: 142 nM | IC50 [2]: 54.7 nM | IC50 [3]: 16.8 nM | IC50 [4]: < 3.16 nM | IC50 [5]: < 3.16 nM | IC50 [6]: < 3.16 nM | viability, T/C [7]: 79.4% | viability, T/C [8]: 70.4% | viability, T/C [9]: 61.4% | viability, T/C [10]: 51% | viability, T/C [11]: 44.9% | viability, T/C [12]: 39.5% | viability, T/C [13]: 78.5% | viability, T/C [14]: 65.6% | viability, T/C [15]: 58% | viability, T/C [16]: 40.9% | viability, T/C [17]: 42.1% | viability, T/C [18]: 36.4% | viability, T/C [19]: 56.1% | viability, T/C [20]: 57.7% | viability, T/C [21]: 41.7% | viability, T/C [22]: 36.6% | viability, T/C [23]: 32.8% | viability, T/C [24]: 33.8% | viability, T/C [25]: 35.2% | viability, T/C [26]: 39.1% | viability, T/C [27]: 31.6% | viability, T/C [28]: 29.2% | viability, T/C [29]: 29.5% | viability, T/C [30]: 30% | viability, T/C [31]: 30.3% | viability, T/C [32]: 26.5% | viability, T/C [33]: 26.5% | viability, T/C [34]: 26.1% | viability, T/C [35]: 26% | viability, T/C [36]: 24.6% | viability, T/C [37]: 22.1% | viability, T/C [38]: 22.3% | viability, T/C [39]: 19.7% | viability, T/C [40]: 19.3% | viability, T/C [41]: 20% | viability, T/C [42]: 17.5%

O=C(c1ccc(F)c(F)c1Nc1ccc(I)cc1F)N1CC(O)([C@@H]2CCCCN2)C1 + C#Cc1c(F)ccc2cc(O)cc(-c3ncc4c(N5CC6CCC(C5)N6)nc(OCC56CCCN5CC(F)C6)nc4c3F)c12
IC50 [1]: 14.5 nM | IC50 [2]: 9.8 nM | IC50 [3]: < 3.16 nM | IC50 [4]: < 3.16 nM | IC50 [5]: < 3.16 nM | IC50 [6]: < 3.16 nM | viability, T/C [7]: 71% | viability, T/C [8]: 55.9% | viability, T/C [9]: 37.7% | viability, T/C [10]: 31.2% | viability, T/C [11]: 29.6% | viability, T/C [12]: 24.4% | viability, T/C [13]: 70.6% | viability, T/C [14]: 49.2% | viability, T/C [15]: 37% | viability, T/C [16]: 31% | viability, T/C [17]: 28.3% | viability, T/C [18]: 23.9% | viability, T/C [19]: 47.9% | viability, T/C [20]: 44.9% | viability, T/C [21]: 31.9% | viability, T/C [22]: 29% | viability, T/C [23]: 30.5% | viability, T/C [24]: 21.6% | viability, T/C [25]: 33.8% | viability, T/C [26]: 29.7% | viability, T/C [27]: 31.9% | viability, T/C [28]: 29.1% | viability, T/C [29]: 29.2% | viability, T/C [30]: 20.8% | viability, T/C [31]: 24.5% | viability, T/C [32]: 28.5% | viability, T/C [33]: 27.4% | viability, T/C [34]: 25.7% | viability, T/C [35]: 21.9% | viability, T/C [36]: 19.1% | viability, T/C [37]: 22% | viability, T/C [38]: 18.8% | viability, T/C [39]: 17.7% | viability, T/C [40]: 18.1% | viability, T/C [41]: 15.5% | viability, T/C [42]: 12.2%
